13 compounds from patent publication US11014904B2, “1,2,4-triazine-3-amine derivative, preparation method therefor, and use thereof in medicine” (Jiangsu Hengrui Medicine Co., Ltd., priority 2017, dated 2021) can be followed below.

Some results are limits rather than exact numbers.

In general, IC50 refers to the midpoint of a concentration-inhibition curve.

Assay [1] deals with T1, adenosine A1 receptor (A1R) (Homo sapiens, UniProt P30542).
T1 construct: expressed in transfected cells; host or cells: CHO-K1
T1 sequence (P30542 1-326): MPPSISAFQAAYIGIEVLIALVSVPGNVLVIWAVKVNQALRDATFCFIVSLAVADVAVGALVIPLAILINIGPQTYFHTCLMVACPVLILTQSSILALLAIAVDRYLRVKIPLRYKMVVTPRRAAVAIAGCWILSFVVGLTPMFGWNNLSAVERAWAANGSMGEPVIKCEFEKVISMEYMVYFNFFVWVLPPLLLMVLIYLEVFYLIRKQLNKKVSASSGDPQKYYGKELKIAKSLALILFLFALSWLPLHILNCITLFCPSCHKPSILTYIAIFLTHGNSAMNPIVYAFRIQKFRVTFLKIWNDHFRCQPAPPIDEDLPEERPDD
Kind of assay: Inhibition of the adenosine A1 receptor cAMP signaling pathway in CHO-K1/A1R cells (HTRF). Conditions: for IC50: CHO-K1/A1R cells, cAMP, forskolin 10 μM, CPA 10 nM; for IC50 ratio (A1R/A2aR): selectivity A1R over A2aR. The assay is classed as cell-based. An excerpt: (§1) Determination of the inhibition activity of the compounds of the present invention on the adenosine A2a receptor (A2aR) cAMP signaling pathway, the adenosine A2b receptor (A2bR) cAMP signaling pathway, the adenosine A1 receptor (A1R) cAMP signaling pathway and the adenosine A3 receptor (A3R) cAMP signaling pathway.
(§2) The inhibition activity of the compounds of the present invention on the adenosine A2a receptor (A2aR) cAMP signaling pathway, the adenosine A2b receptor cAMP signaling pathway, the adenosine A1 receptor cAMP signaling pathway and the adenosine A3 receptor cAMP signaling pathway was determined by the following method. The experimental method is briefly described as follows:
2.3 Adenosine A1 Receptor
CHO-K1/A1R cells were cultured in DMEM/F12 medium containing 10% fetal bovine serum and 1 mg/ml G418. The cells were digested with the cell separation buffer during the experiment. The cells were then resuspended in the balanced salt buffer containing 20 mM HEPES and 0.1% bovine serum albumin and counted, and the cell density was adjusted to 5×10^5 cells/ml. In the 384-well plate, each well was added with 12.5 μl of cell suspension, and 6.25 μl of test compound (4× concentration) formulated with the balanced salt buffer containing 20 mM HEPES, 0.1% bovine serum albumin, 54 μM rolipram and 2.7 U/ml adenosine deaminase, and the plate was incubated at room temperature for 30 minutes. Each well was then added with 6.25 μl of forskolin and N6-cyclopentyladenosine (4× concentration) formulated with the balanced salt buffer containing 20 mM HEPES, 0.1% bovine serum albumin, 54 μM rolipram and 2.7 U/ml adenosine deaminase, and the plate was incubated at room temperature for 30 minutes. The final concentrations of the compounds were: 100000, 10000, 1000, 100, 10, 1, 0.1 and 0 nM. The final concentrations of forskolin was 10 μM. The final concentrations of CPA was 10 nM. Intracellular cAMP concentration was detected with the cAMP dynamic 2 kit. cAMP-d2 and Anti-cAMP-Eu-Cryptate were diluted respectively with the cAMP lysis buffer at a ratio of 1:4. Each well was added with 12.5 μl of diluted cAMP-d2, followed by addition of 12.5 μl of diluted Anti-cAMP-Eu-Cryptate, and the plate was incubated at room temperature in the dark for 1 hour. The HTRF signal values were read by the PHERAstar multi-function microplate reader.
For orientation: Time-resolved FRET reads energy transfer from a long-lived donor to a nearby acceptor.

The target in assay [2] is T2, adenosine A3 receptor (A3R) (Homo sapiens, UniProt P0DMS8).
T2 construct: expressed in transfected cells; host or cells: CHO-K1
T2 sequence (P0DMS8 1-318): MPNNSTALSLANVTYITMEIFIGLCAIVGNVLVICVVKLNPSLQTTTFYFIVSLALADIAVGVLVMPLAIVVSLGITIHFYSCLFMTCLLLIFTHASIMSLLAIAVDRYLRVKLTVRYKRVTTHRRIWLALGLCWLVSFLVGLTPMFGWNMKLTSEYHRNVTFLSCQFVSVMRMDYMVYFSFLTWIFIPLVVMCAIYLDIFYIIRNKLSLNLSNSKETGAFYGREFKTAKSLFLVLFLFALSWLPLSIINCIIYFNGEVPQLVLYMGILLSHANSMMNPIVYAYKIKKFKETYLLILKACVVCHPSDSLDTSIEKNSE
Kind of assay: Inhibition of the adenosine A3 receptor cAMP signaling pathway in CHO-K1/A3R cells (HTRF). The assay is classed as cell-based. As to conditions: for IC50: CHO-K1/A3R cells, cAMP, forskolin 10 μM, 2Cl-IB-MECA 5 nM; for IC50 ratio (A3R/A2aR): selectivity A3R over A2aR.
Description: as §1, §2
2.4 Adenosine A3 Receptor
CHO-K1/A3R cells were cultured in DMEM/F12 medium containing 10% fetal bovine serum and 10 μg/ml puromycin. The cells were digested with the cell separation buffer during the experiment. The cells were resuspended in the balanced salt buffer containing 20 mM HEPES and 0.1% bovine serum albumin and counted, and the cell density was adjusted to 5×10^5 cells/ml. In the 384-well plate, each well was added with 12.5 μl of cell suspension, and 6.25 μl of test compound (4× concentration) formulated with the balanced salt buffer containing 20 mM HEPES, 0.1% bovine serum albumin, 54 μM rolipram and 2.7 U/ml adenosine deaminase, and the plate was incubated at room temperature for 30 minutes. Each well was then added with 6.25 μl of forskolin and 2Cl-IB-MECA (4× concentration) formulated with the balanced salt buffer containing 20 mM HEPES, 0.1% bovine serum albumin, 54 μM rolipram and 2.7 U/ml adenosine deaminase, and the plate was incubated at room temperature for 30 minutes. The final concentrations of the compounds were: 100000, 10000, 1000, 100, 10, 1, 0.1 and 0 nM. The final concentrations of forskolin was 10 μM. The final concentration of 2Cl-IB-MECA was 5 nM. Intracellular cAMP concentration was detected with the cAMP dynamic 2 kit. cAMP-d2 and Anti-cAMP-Eu-Cryptate were diluted respectively with the cAMP lysis buffer at a ratio of 1:4. Each well was added with 12.5 μl of diluted cAMP-d2, followed by addition of 12.5 μl of diluted Anti-cAMP-Eu-Cryptate, and the plate was incubated at room temperature in the dark for 1 hour. The HTRF signal values were read by the PHERAstar multi-function microplate reader.

As to `Nc1nnc(-c2cc(F)c3ncccc3c2)c(-c2ccccc2)n1` [Example 2, 6-(8-Fluoroquinolin-6-yl)-5-phenyl-1,2,4-triazin-3-amine], in assay [1], the IC50 was found to be 133 nM and the “IC50 ratio (A1R/A2aR)” value was 221. Besides, in assay [2], the IC50 is over 10000 nM and the “IC50 ratio (A3R/A2aR)” value is given as >10^4.

Take `Nc1nnc(-c2ccc3ncccc3c2)c(-c2ccccc2)n1` [Example 3, 5-Phenyl-6-(quinolin-6-yl)-1,2,4-triazin-3-amine]: in assay [1], inhibition was half-maximal at 97 nM (IC50) and the “IC50 ratio (A1R/A2aR)” value was 139. In assay [2], the IC50 was over 10000 nM and the “IC50 ratio (A3R/A2aR)” value is listed as >10^4.

Consider `Cc1ncnc2ccc(-c3nnc(N)nc3-c3ccccc3)cc12` [Example 15, 6-(4-Methylquinazolin-6-yl)-5-phenyl-1,2,4-triazin-3-amine], for which, in assay [1], half-maximal inhibition (IC50) required 248 nM and the “IC50 ratio (A1R/A2aR)” value amounted to 2484. Moreover, in assay [2], the IC50 was over 10000 nM and the “IC50 ratio (A3R/A2aR)” value is given as >10^4.

Take `Cc1ccnc2c(F)cc(-c3nnc(N)nc3-c3ccccc3)cc12` [Example 16, 6-(8-Fluoro-4-methylquinolin-6-yl)-5-phenyl-1,2,4-triazin-3-amine]: in assay [1], it took 161 nM to reach half-maximal inhibition (IC50) and the “IC50 ratio (A1R/A2aR)” value was found to be 803. Moreover, in assay [2], the half-maximal inhibitory concentration (IC50) was over 10000 nM and the “IC50 ratio (A3R/A2aR)” value is listed as >10^4.

With `Cc1ccnc2ccc(-c3nnc(N)nc3-c3ccccc3F)cc12` [Example 17, 5-(2-Fluorophenyl)-6-(4-methylquinolin-6-yl)-1,2,4-triazin-3-amine], in assay [1], the IC50 amounted to 1350 nM and the “IC50 ratio (A1R/A2aR)” value is 2698. For the same compound, in assay [2], the IC50 was over 10000 nM and the “IC50 ratio (A3R/A2aR)” value is recorded as >10^4.

As to `Cc1ccnc2ccc(-c3nnc(N)nc3-c3ccc(F)cc3)cc12` [Example 18, 5-(4-Fluorophenyl)-6-(4-methylquinolin-6-yl)-1,2,4-triazin-3-amine], in assay [1], half-maximal inhibition (IC50) was put at 190 nM and the “IC50 ratio (A1R/A2aR)” value turned out to be 948. For the same compound, in assay [2], the IC50 was over 10000 nM and the “IC50 ratio (A3R/A2aR)” value was >10^4.

Turning to `Cc1ncnc2ccc(-c3nnc(N)nc3-c3ccc(F)cc3)cc12` [Example 19, 5-(4-Fluorophenyl)-6-(4-methylquinazolin-6-yl)-1,2,4-triazin-3-amine], in assay [1], the IC50 amounted to 1420 nM and the “IC50 ratio (A1R/A2aR)” value stood at 3557. In assay [2], the IC50 was over 10000 nM and the “IC50 ratio (A3R/A2aR)” value was >10^4.

As for `Cc1ccnc2c(F)cc(-c3nnc(N)nc3-c3ccc(F)cc3)cc12` [Example 20, 6-(8-Fluoro-4-methylquinolin-6-yl)-5-(4-fluorophenyl)-1,2,4-triazin-3-amine], in assay [1], the IC50 amounted to 617 nM and the “IC50 ratio (A1R/A2aR)” value is on record as 411. In assay [2], the concentration for half-maximal inhibition (IC50) was over 10000 nM and the “IC50 ratio (A3R/A2aR)” value was >10^3.

`[2H]C([2H])([2H])c1ccnc2ccc(-c3nnc(N)nc3-c3ccc(F)cc3)cc12` [Example 22, 5-(4-Fluorophenyl)-6-[4-(trideuteromethyl)-6-quinolinyl]-1,2,4-triazin-3-amine]: in assay [1], inhibition was half-maximal at 100 nM (IC50) and the “IC50 ratio (A1R/A2aR)” value worked out at 334. For the same compound, in assay [2], the IC50 was over 10000 nM and the “IC50 ratio (A3R/A2aR)” value is >10^4.

On to `Cc1ccnc2c(F)cc(-c3nnc(N)nc3-c3ccccc3F)cc12` [Example 31, 6-(8-Fluoro-4-methylquinolin-6-yl)-5-(2-fluorophenyl)-1,2,4-triazin-3-amine], for which, in assay [1], inhibition was half-maximal at 1640 nM (IC50) and the “IC50 ratio (A1R/A2aR)” value is on record as 431. Also, in assay [2], the IC50 was over 10000 nM and the “IC50 ratio (A3R/A2aR)” value was >10^3.

As to `CCc1ccnc2ccc(-c3nnc(N)nc3-c3ccc(F)cc3)cc12` [Example 44, 6-(4-Ethylquinolin-6-yl)-5-(4-fluorophenyl)-1,2,4-triazin-3-amine], in assay [1], the IC50 was determined as 646 nM and the “IC50 ratio (A1R/A2aR)” value was determined as 807. For the same compound, in assay [2], the IC50 is over 10000 nM and the “IC50 ratio (A3R/A2aR)” value is on record as >10^4.

On to `Cc1ncnc2c(F)cc(-c3nnc(N)nc3-c3ccccc3)cc12` [Example 45, 6-(8-Fluoro-4-methylquinazolin-6-yl)-5-phenyl-1,2,4-triazin-3-amine], for which, in assay [1], the IC50 worked out at 930 nM and the “IC50 ratio (A1R/A2aR)” value is reported as 775. For the same compound, in assay [2], the IC50 was over 10000 nM and the “IC50 ratio (A3R/A2aR)” value is reported as >10^3.

As for `[2H]C([2H])([2H])c1ncnc2ccc(-c3nnc(N)nc3-c3ccc(F)cc3)cc12` [Example 52, 5-(4-Fluorophenyl)-6-(4-(methyl-d3)quinazolin-6-yl)-1,2,4-triazin-3-amine], in assay [1], inhibition was half-maximal at 876 nM (IC50) and the “IC50 ratio (A1R/A2aR)” value amounted to 973. Besides, in assay [2], the IC50 is over 10000 nM and the “IC50 ratio (A3R/A2aR)” value is on record as >10^4.
